The target in test [1] is T1, human soluble TNFR1 (sTNFR1) (Homo sapiens, UniProt P19438).
T1 construct: made in house; host or cells: Sf21 (baculovirus)
T1 sequence (P19438 with tags, fused parts or gaps): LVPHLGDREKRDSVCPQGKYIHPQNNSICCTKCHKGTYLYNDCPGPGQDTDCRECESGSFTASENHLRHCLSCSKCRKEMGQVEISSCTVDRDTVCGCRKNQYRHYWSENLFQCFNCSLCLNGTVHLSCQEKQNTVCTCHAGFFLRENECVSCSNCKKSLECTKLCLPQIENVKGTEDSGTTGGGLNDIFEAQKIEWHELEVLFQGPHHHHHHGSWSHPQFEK
The experiment in a line: Human sTNFR1-peptide displacement assay (LanthaScreen Eu TR-FRET binding assay). The gist of the method:
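Readout is the 665/615 nm TR-FRET ratio (Eu anti-His donor, streptavidin-Alexa647 acceptor), normalized to DMSO and saturating displacer, fit by Morrison-based five-parameter logistic for Kd^app. His-tagged sTNFR1 (1-211) prebound to 100 nM biotinylated peptide SEQ ID NO.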
(In general: Time-resolved FRET reads energy transfer from a long-lived donor to a nearby acceptor.)

For a further test, the target named is T2, human TNFR2 ECD protein (Homo sapiens, UniProt P20333).
T2 construct: HRV 3C protease cleavage site (C); 6His (C, cleaved yes); made in house; host or cells: Sf21 insect cells (baculovirus), secreted
T2 sequence (P20333 23-257): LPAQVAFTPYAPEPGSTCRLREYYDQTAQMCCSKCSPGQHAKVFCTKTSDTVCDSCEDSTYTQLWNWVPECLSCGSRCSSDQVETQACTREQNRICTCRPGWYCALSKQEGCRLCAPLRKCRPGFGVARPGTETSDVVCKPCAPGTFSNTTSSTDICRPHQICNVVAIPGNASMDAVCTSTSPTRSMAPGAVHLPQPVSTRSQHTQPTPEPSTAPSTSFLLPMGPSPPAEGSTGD
Kind of test: SPR off-target binding (selectivity) to human TNFR2 ECD. The gist of the method: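 Biotinylated human TNFR1 or TNFR2 ECD (C-terminal Avi-tag, Sf21-expressed) captured on a regenerable streptavidin chip; peptide analytes flowed in 10 mM HEPES pH 7.4, 150 mM NaCl, 3 mM EDTA, 0.05% P20, 2% DMSO. kon and koff measured; affinity calculated from the rate constants.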

Like-named read-outs stand apart in the source and are kept apart here. Numbered stars: 1 amine (or outer) side, 2 acyl side, 3 side chain; on linkers, the order of the positions; unused ones are H or OH. Square brackets hold non-standard residues; d marks the D form. Peptide text beside a SMILES is read from it. * marks the point of attachment. Trp(βS-Me,7-OMe) = COc1cccc2c([C@H](C)[C@H](N)C(=O)O)c[nH]c12; Phe(4-CH2CH2COOH) = N[C@@H](Cc1ccc(CCC(=O)O)cc1)C(=O)O; Phe(4-SO2NH2) = N[C@@H](Cc1ccc(S(N)(=O)=O)cc1)C(=O)O; Trp(7-CN) = N#Cc1cccc2c(C[C@H](N)C(=O)O)c[nH]c12; Trp(7-Cl) = N[C@@H](Cc1c[nH]c2c(Cl)cccc12)C(=O)O; Phe(4-COOH) = N[C@@H](Cc1ccc(C(=O)O)cc1)C(=O)O; Trp(7-aza) = N[C@@H](Cc1c[nH]c2ncccc12)C(=O)O; Phe(4-CH2NH2) = NCc1ccc(C[C@H](N)C(=O)O)cc1; Pip(5R-OH) = O=C(O)[C@@H]1CC[C@@H](O)CN1; X1 = O=C([C@@H]1CC[C@H](N[*:1])C1)[*:2]; Pip(4-aza) = O=C(O)[C@@H]1CNCCN1; 4Pal = N[C@@H](Cc1ccncc1)C(=O)O; NMeE = CN[C@@H](CCC(=O)O)C(=O)O; dHyp = O=C(O)[C@H]1C[C@H](O)CN1; αMeS = C[C@](N)(CO)C(=O)O; Carboxymethyl = O=C(O)C*; Nle = CCCC[C@H](N)C(=O)O; Sar = CNCC(=O)O

`CCCC[C@@H]1NC(=O)[C@@H]2CC[C@@H](C2)NC(=O)[C@H]([C@@H](C)c2c[nH]c3c(OC)cccc23)NC(=O)CN(C)C(=O)[C@H](Cc2ccc(CN)cc2)NC(=O)[C@H](Cc2ccc(C(=O)O)cc2)NC(=O)[C@](C)(CO)NC(=O)[C@H](Cc2c[nH]c3c(Cl)cccc23)NC(=O)[C@H](Cc2ccncc2)NC(=O)[C@H](CC(N)=O)NC(=O)[C@H](CCC(=O)O)N(C)C(=O)[C@H](Cc2c[nH]c3ccccc23)NC(=O)[C@@H]2CNCCN2C(=O)[C@H](Cc2ccncc2)NC1=O` [SEQ ID NO. 269] (cyclo([4Pal][Trp(7-Cl)][αMeS][Phe(4-COOH)][Phe(4-CH2NH2)][Sar][Trp(βS-Me,7-OMe)][X1][Nle][4Pal][Pip(4-aza)]W[NMeE]N)): the Kd is 0.08 nM in test [1] and more than 1000 nM on human TNFR2 ECD protein.

As to `CCCC[C@@H]1NC(=O)[C@@H]2CC[C@@H](C2)NC(=O)[C@H]([C@@H](C)c2c[nH]c3c(OC)cccc23)NC(=O)CN(C)C(=O)[C@H](Cc2ccc(CCC(=O)O)cc2)NC(=O)[C@H](Cc2ccc(S(N)(=O)=O)cc2)NC(=O)[C@](C)(CO)NC(=O)[C@H](Cc2c[nH]c3c(C#N)cccc23)NC(=O)[C@H](Cc2ccc(OCC(=O)O)cc2)NC(=O)[C@H](CC(N)=O)NC(=O)[C@H]2C[C@H](O)CN2C(=O)[C@H](Cc2c[nH]c3ncccc23)NC(=O)[C@@H]2CC[C@@H](O)CN2C(=O)[C@H](Cc2ccncc2)NC1=O` [SEQ ID NO. 30] (cyclo([4Pal][Pip(5R-OH)][Trp(7-aza)][dHyp]NY(Carboxymethyl)[Trp(7-CN)][αMeS][Phe(4-SO2NH2)][Phe(4-CH2CH2COOH)][Sar][Trp(βS-Me,7-OMe)][X1][Nle])), the Kd was 0.07 nM in test [1] (displacement of biotinylated peptide SEQ ID NO. 1 from sTNFR1, 20 point titration, 5-parameter fit based on Morrison equation (tight binding), read-out: TR-FRET Kd^app) and more than 1000 nM on human TNFR2 ECD protein (biotinylated human TNFR2 ECD on streptavidin chip, read-out: SPR hTNFR2 KD).
